Assay [1] can be described thus: Phase II clinical trial, tumor responses. The settings on record: 150 mg/m^2 biweekly. It is filed as in vivo, human patients. An excerpt:
To date, the first six patients have received at least one cycle of treatments. […] Specifically, three patients enrolled in the study had measurable disease.

For a further assay, the system named is LX-1 lung tumor. Description: Antitumor activity against LX-1 lung tumor in nude mice (Example 10, combinations). Format: in vivo, human tumor xenograft in nude mice. The settings on record: for Avg Tumor Diameter: 4 treatments, mg/kg: EDX 40, PDX 60, TXL 25, TXT 20, PDX+TXL 45+18, PDX+TXT 45+15, 'then' = taxane 24 h later; for Change in Tumor Volume: from starting point of 83 mg, 3 to 4 days after treatment end. In general terms: In xenograft studies the graft and the host belong to different species.

A further assay has as its system human LX-1 lung cancer. As to the kind of experiment: Antitumor activity against xenografts of human LX-1 lung cancer in nude mice (Example 3). It is filed as in vivo, human tumor xenograft in nude mice. The settings on record: Example 2 protocol, tumor free three weeks after therapy.
Assay [2] deals with human MX-1 mammary carcinoma. As to the kind of experiment: Antitumor activity against xenografts of human MX-1 mammary carcinoma in nude mice. The settings on record: same doses, no measurable tumor at day 14, mice/mice tested.
A further assay deals with LX-1 (human lung). Description: Antitumor activity in LX-1 tumor model in mice (Example 11).
The test system of the next assay is PC-3 (human prostate). As to the kind of experiment: Antitumor activity in PC-3 tumor model in mice (Example 11). The settings on record: PC3, dose PDX 60, TXL 25, PDX + TXL 45 + 16.
The subject of the next assay is TSU-PR1 (human prostate). As to the kind of experiment: Antitumor activity in TSU-PR1 tumor model in mice (Example 11).
The mark [3] stands for this setting: dose PDX 60, TXL 25, PDX + TXL 45 + 16.
[4] abbreviates: dose PDX 60, TXL 25, PDX + TXL 45 + 16, initial volume 14-19 mm^3.

From the text for LX-1 (human lung): (§1) The tumor volume at the time of initial treatment was 14-19 mm^3.
From the text for PC-3 (human prostate): as §1
From the text for TSU-PR1 (human prostate): as §1

In the case of `C#CCC(Cc1cnc2nc(N)nc(N)c2n1)c1ccc(C(=O)N[C@@H](CCC(=O)O)C(=O)O)cc1` (stereo partly drawn) [10-propargyl-10-deazaaminopterin], the “response of fourth patient (evaluable disease)” value in assay [1] is reported as “objective improvement in disease parameters”. Further, the “patients with major responses” value in assay [1] (of first six patients) is “four have demonstrated major responses”. Besides, in assay [1] (three patients with measurable disease), the “reduction in tumor diameter (lung scans)” value is recorded as “at least 50%”.
On to `CCC(Cc1cnc2nc(N)nc(N)c2n1)c1ccc(C(=O)N[C@@H](CCC(=O)O)C(=O)O)cc1` (stereo partly drawn) [EDX, edatrexate], for which the “Avg Tumor Diameter” value in the assay with LX-1 lung tumor came to 6.6 ± 2 mm. In addition, in the assay on LX-1 lung tumor (same doses), the “Change in Tumor Volume” value is recorded as “+102 mg”. In the assay with LX-1 lung tumor (same doses, mice/mice treated), the “Tumor Free Mice at 3-4 days” value is on record as 0/10.
As for `CN(Cc1cnc2nc(N)nc(N)c2n1)c1ccc(C(=O)N[C@@H](CCC(=O)O)C(=O)O)cc1` [MTX, methotrexate, reference compound], the Cures with human LX-1 lung cancer is listed as 0/10. The “Complete Regressions” value in assay [2] was “no regressions”.
As to `CC(=O)O[C@H]1C(=O)[C@@]2(C)[C@H]([C@H](OC(=O)c3ccccc3)[C@]3(O)C[C@H](OC(=O)[C@H](O)[C@@H](NC(=O)c4ccccc4)c4ccccc4)C(C)=C1C3(C)C)[C@]1(OC(C)=O)CO[C@@H]1C[C@@H]2O` [TXL, paclitaxel, reference compound], the “Avg Tumor Diameter” value was determined as 11.6 ± 1 mm with LX-1 (human lung) (setting [3]), 4.3 ± 0.3 mm with PC-3 (human prostate), 6.2 ± 2 mm with LX-1 lung tumor and 3.2 ± 0.3 mm with TSU-PR1 (human prostate) (setting [3]). Besides, the “Tumor Free Mice” value in the assay with LX-1 (human lung) (setting [3]), with PC-3 (human prostate) and with TSU-PR1 (human prostate) (setting [3]) was 0/6 each time. For the same compound, the “Change in Tumor Volume” value in the assay with LX-1 (human lung) (setting [4]) is “+803”; with PC-3 (human prostate) (initial volume 14-19 mm^3) it was “+26”; in the assay on LX-1 lung tumor (same doses), “+42 mg”; with TSU-PR1 (human prostate) (setting [4]), 0. The “Tumor Free Mice at 3-4 days” value with LX-1 lung tumor (same doses, mice/mice treated) is reported as 0/10.
On to `CC(=O)O[C@@]12CO[C@@H]1C[C@H](O)[C@@]1(C)C(=O)[C@H](O)C3=C(C)[C@@H](OC(=O)[C@H](O)[C@@H](NC(=O)OC(C)(C)C)c4ccccc4)C[C@@](O)([C@@H](OC(=O)c4ccccc4)[C@H]21)C3(C)C` [TXT, docetaxel], for which the “Avg Tumor Diameter” value with LX-1 lung tumor is 6.0 ± 2 mm. Moreover, in the assay with LX-1 lung tumor (same doses), the “Change in Tumor Volume” value is recorded as “+34 mg”. In the assay on LX-1 lung tumor (same doses, mice/mice treated), the “Tumor Free Mice at 3-4 days” value is given as 1/10 and the “Tumor Free Mice at 28 days” value is reported as 0/10.

Values taken from patent US6323205A (priority 2000, dated 2001).
